Key:
RIPK1 = RIPK1 (Homo sapiens (Human), UniProt Q13546); test: In vitro kinase assay (Eurofins Kinase Profiler), IC50; type: biochemical; details: 0.001-10 μM, read-out: RIPK 1 (IC50)
Protocol: (§1) In vitro kinase assays were conducted using Kinase Profiler services provided by Eurofins. The experimental method was as follows: the small molecule compound to be tested (0.001-10 μM), the protein kinase to be tested were incubated with a buffer containing substrate, 10 mM magnesium acetate, and [γ-^33P-ATP], the reaction was started by adding Mg\TPmix, after incubation for a period of time at room temperature, a 3% phosphate solution was added to the buffer to stop the reaction. Subsequently, 10 μL of the reaction mixture was quantitatively pipetted onto P30 filter paper, which was washed three times with 75 mM phosphate solution and then once with methanol. The P30 filter paper was air-dried and scintillation fluid was added for scintillation counting.

Flt3(D835Y)(h) = Flt3(D835Y)(h) (Homo sapiens (Human), UniProt P36888, D835Y); test: Kinase Profiler 10 μM panel
Protocol: as §1

Pim-1(h) = Pim-1(h) (Homo sapiens (Human), UniProt P11309); test: Kinase Profiler 10 μM panel
Protocol: as §1

Pim-2(h) = Pim-2(h) (Homo sapiens (Human), UniProt Q9P1W9); test: Kinase Profiler 10 μM panel
Protocol: as §1

PKA(h) = PKA(h) (Homo sapiens (Human), UniProt P17612); test: Kinase Profiler 10 μM panel
Protocol: as §1

HIPK2(h) = HIPK2(h) (Homo sapiens (Human), UniProt Q9H2X6); test: Kinase Profiler 10 μM panel
Protocol: as §1

PKBα(h) = PKBα(h) (Homo sapiens (Human), UniProt P31749); test: Kinase Profiler 10 μM panel
Protocol: as §1

CaMKI(h) = CaMKI(h) (Homo sapiens (Human), UniProt Q14012); test: Kinase Profiler 10 μM panel
Protocol: as §1

JAK3(h) = JAK3(h) (Homo sapiens (Human), UniProt P52333); test: Kinase Profiler 10 μM panel
Protocol: as §1

Lck(h) activated = Lck(h) activated (Homo sapiens (Human), UniProt P06239); test: Kinase Profiler 10 μM panel
Protocol: as §1

LOK(h) = LOK(h) (Homo sapiens (Human), UniProt O94804); test: Kinase Profiler 10 μM panel
Protocol: as §1

LRRK2(h) = LRRK2(h) (Homo sapiens (Human), UniProt Q5S007); test: Kinase Profiler 10 μM panel
Protocol: as §1

Lyn(h) = Lyn(h) (Homo sapiens (Human), UniProt P07948); test: Kinase Profiler 10 μM panel
Protocol: as §1

ROCK-I(h) = ROCK-I(h) (Homo sapiens (Human), UniProt Q13464); test: Kinase Profiler 10 μM panel
Protocol: as §1

SAPK2a(T106M)(h) = SAPK2a(T106M)(h) (Homo sapiens (Human), UniProt Q16539, T106M); test: Kinase Profiler 10 μM panel
Protocol: as §1

MELK(h) = MELK(h) (Homo sapiens (Human), UniProt Q14680); test: Kinase Profiler 10 μM panel
Protocol: as §1

Met(h) = Met(h) (Homo sapiens (Human), UniProt P08581); test: Kinase Profiler 10 μM panel
Protocol: as §1

Met(Y1248C)(h) = Met(Y1248C)(h) (Homo sapiens (Human), UniProt P08581, Y1230C); test: Kinase Profiler 10 μM panel
Protocol: as §1

MKK3(h) = MKK3(h) (Homo sapiens (Human), UniProt P46734); test: Kinase Profiler 10 μM panel
Protocol: as §1

SRMS(h) = SRMS(h) (Homo sapiens (Human), UniProt Q9H3Y6); test: Kinase Profiler 10 μM panel
Protocol: as §1

MLK3(h) = MLK3(h) (Homo sapiens (Human), UniProt Q16584); test: Kinase Profiler 10 μM panel
Protocol: The experimental method was as follows: the small molecule compound to be tested (0.001-10 μM), the protein kinase to be tested were incubated with a buffer containing substrate, 10 mM magnesium acetate, and [γ-^33P-ATP], the reaction was started by adding Mg\TPmix, after incubation for a period of time at room temperature, a 3% phosphate solution was added to the buffer to stop the reaction. Subsequently, 10 μL of the reaction mixture was quantitatively pipetted onto P30 filter paper, which was washed three times with 75 mM phosphate solution and then once with methanol. The P30 filter paper was air-dried and scintillation fluid was added for scintillation counting.

c-RAF(h) = c-RAF(h) (Homo sapiens (Human), UniProt P04049, Y340D/Y341D); test: Kinase Profiler 10 μM panel
Protocol: as §1

STK33(h) = STK33(h) (Homo sapiens (Human), UniProt Q9BYT3); test: Kinase Profiler 10 μM panel
Protocol: as §1

MSK2(h) = MSK2(h) (Homo sapiens (Human), UniProt O75676); test: Kinase Profiler 10 μM panel
Protocol: as §1

DCAMKL3(h) = DCAMKL3(h) (Homo sapiens (Human), UniProt Q9C098); test: Kinase Profiler 10 μM panel
DRAK2(h) = DRAK2(h) (Homo sapiens (Human), UniProt O94768); test: Kinase Profiler 10 μM panel
Protocol: as §1

EGFR(T790M)(h) = EGFR(T790M)(h) (Homo sapiens (Human), UniProt P00533, T790M); test: Kinase Profiler 10 μM panel
Protocol: as §1

TSSK3(h) = TSSK3(h) (Homo sapiens (Human), UniProt Q96PN8); test: Kinase Profiler 10 μM panel
Protocol: as §1

Txk(h) = Txk(h) (Homo sapiens (Human), UniProt P42681); test: Kinase Profiler 10 μM panel
Protocol: as §1

EphA7(h) = EphA7(h) (Homo sapiens (Human), UniProt Q15375); test: Kinase Profiler 10 μM panel
Protocol: as §1

EphB3(h) = EphB3(h) (Homo sapiens (Human), UniProt P54753); test: Kinase Profiler 10 μM panel
Protocol: as §1

EphB4(h) = EphB4(h) (Homo sapiens (Human), UniProt P54760); test: Kinase Profiler 10 μM panel
Protocol: as §1

VRK2(h) = VRK2(h) (Homo sapiens (Human), UniProt Q86Y07); test: Kinase Profiler 10 μM panel
Protocol: as §1

Sequence of MSK2(h) (O75676 whole entry): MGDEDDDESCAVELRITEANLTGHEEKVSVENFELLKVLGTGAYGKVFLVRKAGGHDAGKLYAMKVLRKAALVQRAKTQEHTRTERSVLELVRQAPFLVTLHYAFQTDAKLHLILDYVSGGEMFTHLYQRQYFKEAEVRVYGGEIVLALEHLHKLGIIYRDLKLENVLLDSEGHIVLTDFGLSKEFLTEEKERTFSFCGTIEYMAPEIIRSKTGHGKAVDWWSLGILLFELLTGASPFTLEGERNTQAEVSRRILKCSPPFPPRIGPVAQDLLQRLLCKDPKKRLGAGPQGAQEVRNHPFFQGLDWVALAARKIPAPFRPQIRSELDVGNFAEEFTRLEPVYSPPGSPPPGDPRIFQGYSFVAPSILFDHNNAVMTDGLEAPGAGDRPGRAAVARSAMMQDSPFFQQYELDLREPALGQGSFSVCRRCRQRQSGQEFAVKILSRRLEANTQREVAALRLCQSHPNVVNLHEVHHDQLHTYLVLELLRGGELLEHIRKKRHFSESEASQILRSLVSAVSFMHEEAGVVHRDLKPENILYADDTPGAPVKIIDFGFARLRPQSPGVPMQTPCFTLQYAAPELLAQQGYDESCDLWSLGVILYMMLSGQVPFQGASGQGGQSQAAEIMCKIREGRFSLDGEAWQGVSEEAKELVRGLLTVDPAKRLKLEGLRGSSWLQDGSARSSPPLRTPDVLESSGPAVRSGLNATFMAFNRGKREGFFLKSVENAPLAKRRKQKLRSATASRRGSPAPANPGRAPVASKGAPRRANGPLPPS
Sequence of Met(Y1248C)(h) (P08581 956-1390 Y1230C limits assumed): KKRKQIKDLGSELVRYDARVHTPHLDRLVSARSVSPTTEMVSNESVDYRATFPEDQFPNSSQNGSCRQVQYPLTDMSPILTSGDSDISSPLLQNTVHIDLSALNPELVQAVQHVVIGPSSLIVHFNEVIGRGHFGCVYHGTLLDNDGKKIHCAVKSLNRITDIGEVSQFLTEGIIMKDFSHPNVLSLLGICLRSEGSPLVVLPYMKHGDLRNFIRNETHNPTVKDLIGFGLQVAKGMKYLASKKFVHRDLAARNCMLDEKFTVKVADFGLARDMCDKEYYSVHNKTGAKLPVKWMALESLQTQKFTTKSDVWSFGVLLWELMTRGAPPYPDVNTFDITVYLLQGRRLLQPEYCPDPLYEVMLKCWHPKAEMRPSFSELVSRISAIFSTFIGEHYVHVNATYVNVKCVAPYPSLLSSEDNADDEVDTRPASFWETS
Sequence of SRMS(h) (Q9H3Y6 whole entry): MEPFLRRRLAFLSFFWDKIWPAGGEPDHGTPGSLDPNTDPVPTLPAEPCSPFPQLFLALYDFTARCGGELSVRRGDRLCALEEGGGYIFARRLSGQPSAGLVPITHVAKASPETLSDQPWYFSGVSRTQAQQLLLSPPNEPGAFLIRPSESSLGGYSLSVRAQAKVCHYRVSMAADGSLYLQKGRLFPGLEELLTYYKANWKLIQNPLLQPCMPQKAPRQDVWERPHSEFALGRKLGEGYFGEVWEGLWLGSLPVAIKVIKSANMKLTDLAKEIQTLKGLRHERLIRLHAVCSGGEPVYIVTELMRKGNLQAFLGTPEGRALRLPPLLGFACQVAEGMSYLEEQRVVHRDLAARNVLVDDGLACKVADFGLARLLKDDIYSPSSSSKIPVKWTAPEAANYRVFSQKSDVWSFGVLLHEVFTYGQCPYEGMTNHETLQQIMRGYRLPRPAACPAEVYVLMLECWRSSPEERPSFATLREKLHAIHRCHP
Sequence of MLK3(h) (Q16584 whole entry): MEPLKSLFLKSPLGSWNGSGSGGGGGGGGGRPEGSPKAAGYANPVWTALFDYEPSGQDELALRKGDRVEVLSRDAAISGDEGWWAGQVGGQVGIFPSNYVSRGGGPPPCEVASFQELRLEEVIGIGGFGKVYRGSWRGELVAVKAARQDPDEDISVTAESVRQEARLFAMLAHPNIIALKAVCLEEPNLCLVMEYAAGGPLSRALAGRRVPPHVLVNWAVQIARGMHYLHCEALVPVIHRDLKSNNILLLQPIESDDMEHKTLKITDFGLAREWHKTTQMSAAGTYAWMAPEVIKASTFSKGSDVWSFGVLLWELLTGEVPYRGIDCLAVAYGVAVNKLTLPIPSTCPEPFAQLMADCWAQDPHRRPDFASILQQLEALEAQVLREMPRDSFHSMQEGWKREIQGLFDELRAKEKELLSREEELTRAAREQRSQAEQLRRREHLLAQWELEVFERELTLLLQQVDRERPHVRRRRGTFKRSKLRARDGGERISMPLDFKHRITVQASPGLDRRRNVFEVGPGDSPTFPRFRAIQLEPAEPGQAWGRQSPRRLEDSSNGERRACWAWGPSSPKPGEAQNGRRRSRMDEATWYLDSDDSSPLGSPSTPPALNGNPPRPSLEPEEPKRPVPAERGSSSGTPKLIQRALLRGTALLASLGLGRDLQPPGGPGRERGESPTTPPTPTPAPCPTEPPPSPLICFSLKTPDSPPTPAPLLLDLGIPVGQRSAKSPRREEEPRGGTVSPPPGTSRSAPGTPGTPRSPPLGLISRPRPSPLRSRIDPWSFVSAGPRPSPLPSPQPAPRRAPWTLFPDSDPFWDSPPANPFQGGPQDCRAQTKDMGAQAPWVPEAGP
Sequence of EGFR(T790M)(h) (P00533 25-1210 T790M): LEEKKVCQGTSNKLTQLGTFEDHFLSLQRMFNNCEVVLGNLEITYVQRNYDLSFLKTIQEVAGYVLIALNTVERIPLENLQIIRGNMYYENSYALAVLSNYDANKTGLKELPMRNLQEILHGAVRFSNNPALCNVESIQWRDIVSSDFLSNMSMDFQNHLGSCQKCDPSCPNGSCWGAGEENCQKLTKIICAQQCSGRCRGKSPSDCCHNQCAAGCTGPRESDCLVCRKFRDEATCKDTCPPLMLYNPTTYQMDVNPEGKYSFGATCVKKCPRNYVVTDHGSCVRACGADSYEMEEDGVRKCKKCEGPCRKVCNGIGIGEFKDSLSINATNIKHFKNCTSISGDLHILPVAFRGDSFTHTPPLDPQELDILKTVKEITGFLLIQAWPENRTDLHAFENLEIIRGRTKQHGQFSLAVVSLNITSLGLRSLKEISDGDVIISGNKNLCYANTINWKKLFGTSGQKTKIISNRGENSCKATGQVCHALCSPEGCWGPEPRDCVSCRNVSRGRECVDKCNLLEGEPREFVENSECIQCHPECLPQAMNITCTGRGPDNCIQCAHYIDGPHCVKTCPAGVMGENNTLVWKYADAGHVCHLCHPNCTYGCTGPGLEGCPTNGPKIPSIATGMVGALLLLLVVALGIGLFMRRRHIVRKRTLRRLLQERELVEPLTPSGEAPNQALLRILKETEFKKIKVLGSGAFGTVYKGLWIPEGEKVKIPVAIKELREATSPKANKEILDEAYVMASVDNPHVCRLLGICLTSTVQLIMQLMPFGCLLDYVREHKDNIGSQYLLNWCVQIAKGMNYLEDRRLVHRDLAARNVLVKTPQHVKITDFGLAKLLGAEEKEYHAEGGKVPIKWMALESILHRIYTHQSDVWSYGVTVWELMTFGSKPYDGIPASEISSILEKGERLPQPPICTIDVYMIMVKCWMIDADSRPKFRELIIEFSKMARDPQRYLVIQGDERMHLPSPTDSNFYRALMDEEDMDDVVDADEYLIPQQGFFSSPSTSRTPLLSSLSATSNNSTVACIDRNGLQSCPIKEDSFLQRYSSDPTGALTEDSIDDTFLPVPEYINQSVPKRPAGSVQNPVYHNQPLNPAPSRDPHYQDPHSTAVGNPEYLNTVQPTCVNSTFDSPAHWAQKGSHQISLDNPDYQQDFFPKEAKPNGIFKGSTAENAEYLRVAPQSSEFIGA
Sequence of STK33(h) (Q9BYT3 whole entry): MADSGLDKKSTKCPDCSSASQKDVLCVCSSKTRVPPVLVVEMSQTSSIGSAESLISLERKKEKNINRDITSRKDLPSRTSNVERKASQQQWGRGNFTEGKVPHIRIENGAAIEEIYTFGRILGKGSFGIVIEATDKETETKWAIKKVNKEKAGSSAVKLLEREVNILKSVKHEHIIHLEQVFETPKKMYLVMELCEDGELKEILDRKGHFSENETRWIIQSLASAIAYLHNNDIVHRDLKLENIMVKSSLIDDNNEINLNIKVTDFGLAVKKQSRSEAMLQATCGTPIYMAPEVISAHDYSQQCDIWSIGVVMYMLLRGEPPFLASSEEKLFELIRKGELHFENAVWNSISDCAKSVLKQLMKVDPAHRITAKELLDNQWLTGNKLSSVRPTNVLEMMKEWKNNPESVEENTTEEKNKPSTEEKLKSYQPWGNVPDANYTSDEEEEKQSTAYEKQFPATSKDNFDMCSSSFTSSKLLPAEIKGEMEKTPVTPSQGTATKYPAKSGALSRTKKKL
Sequence of SAPK2a(T106M)(h) (Q16539 whole entry T106M): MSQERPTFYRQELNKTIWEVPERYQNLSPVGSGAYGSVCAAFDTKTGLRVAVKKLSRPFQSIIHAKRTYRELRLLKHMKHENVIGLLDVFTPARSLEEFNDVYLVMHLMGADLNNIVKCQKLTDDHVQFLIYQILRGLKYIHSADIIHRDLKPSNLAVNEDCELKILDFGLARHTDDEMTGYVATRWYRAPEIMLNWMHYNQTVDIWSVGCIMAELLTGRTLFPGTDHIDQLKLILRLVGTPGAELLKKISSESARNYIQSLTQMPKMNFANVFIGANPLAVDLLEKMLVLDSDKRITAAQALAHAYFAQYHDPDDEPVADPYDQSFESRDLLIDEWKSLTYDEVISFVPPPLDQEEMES
Sequence of MKK3(h) (P46734 whole entry): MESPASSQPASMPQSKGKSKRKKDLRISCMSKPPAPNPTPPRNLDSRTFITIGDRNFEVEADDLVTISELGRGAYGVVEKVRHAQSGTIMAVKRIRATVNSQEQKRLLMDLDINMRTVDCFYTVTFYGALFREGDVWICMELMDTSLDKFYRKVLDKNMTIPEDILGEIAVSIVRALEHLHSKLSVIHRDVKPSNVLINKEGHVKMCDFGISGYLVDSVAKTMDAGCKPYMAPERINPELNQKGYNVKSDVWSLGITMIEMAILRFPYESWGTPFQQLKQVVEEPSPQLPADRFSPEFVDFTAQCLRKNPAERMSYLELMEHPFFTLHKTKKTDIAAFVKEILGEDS

C[C@H](NC(=O)c1c[nH]c2ccc(-c3ccc4nc(NC(=O)C5CC5)sc4c3)cc12)c1cccc(F)c1 [Compound 34, (S)-5-(2-(cyclopropanecarboxamido)benzo[d]thiazol-6-yl)-N-(1-(3-fluorophenyl)ethyl)-1H-indole-3-carboxamide]
IC50 (RIPK1): 10 to 100 nM | Inhibition ratio (Flt3(D835Y)(h)): 82% | Inhibition ratio (Pim-1(h)): 3% | Inhibition ratio (Pim-2(h)): −5% | Inhibition ratio (PKA(h)): −12% | Inhibition ratio (HIPK2(h)): 66% | Inhibition ratio (PKBα(h)): 11% | Inhibition ratio (CaMKI(h)): 5% | Inhibition ratio (JAK3(h)): 23% | Inhibition ratio (Lck(h) activated): 76% | Inhibition ratio (LOK(h)): 85% | Inhibition ratio (LRRK2(h)): 30% | Inhibition ratio (Lyn(h)): 52% | Inhibition ratio (ROCK-I(h)): 15% | Inhibition ratio (SAPK2a(T106M)(h)): 63% | Inhibition ratio (MELK(h)): 36% | Inhibition ratio (Met(h)): 95% | Inhibition ratio (Met(Y1248C)(h)): 99% | Inhibition ratio (MKK3(h)): 35% | Inhibition ratio (SRMS(h)): 12% | Inhibition ratio (MLK3(h)): 101% | Inhibition ratio (c-RAF(h)): 15% | Inhibition ratio (STK33(h)): 4% | Inhibition ratio (MSK2(h)): 23% | Inhibition ratio (DCAMKL3(h)): 8% | Inhibition ratio (DRAK2(h)): 18% | Inhibition ratio (EGFR(T790M)(h)): 40% | Inhibition ratio (TSSK3(h)): −6% | Inhibition ratio (Txk(h)): 47% | Inhibition ratio (EphA7(h)): 96% | Inhibition ratio (EphB3(h)): 3% | Inhibition ratio (EphB4(h)): 11% | Inhibition ratio (VRK2(h)): 21%

C[C@H](NC(=O)c1cn(C)c2ccc(-c3ccn4nc(NC(=O)C5CC5)nc4c3)cc12)c1cccc(F)c1 [Compound 94, (S)-5-(2-(cyclopropanecarboxamido)-[1,2,4]triazolo[1,5-a]pyridin-7-yl)-N-(1-(3-fluorophenyl)ethyl)-1-methyl-1H-indole-3-carboxamide]
IC50 (RIPK1): 1 to 10 nM | Inhibition ratio/% (Flt3(D835Y)(h)): 12% | Inhibition ratio/% (Pim-1(h)): 9% | Inhibition ratio/% (Pim-2(h)): −14% | Inhibition ratio/% (PKA(h)): 55% | Inhibition ratio/% (HIPK2(h)): 36% | Inhibition ratio/% (PKBα(h)): −11% | Inhibition ratio/% (CaMKI(h)): 49% | Inhibition ratio/% (JAK3(h)): 38% | Inhibition ratio/% (Lck(h) activated): 46% | Inhibition ratio/% (LOK(h)): 25% | Inhibition ratio/% (LRRK2(h)): 10% | Inhibition ratio/% (Lyn(h)): 55% | Inhibition ratio/% (ROCK-I(h)): −10% | Inhibition ratio/% (SAPK2a(T106M)(h)): −20% | Inhibition ratio/% (MELK(h)): 1% | Inhibition ratio/% (Met(h)): −29% | Inhibition ratio/% (Met(Y1248C)(h)): 11% | Inhibition ratio/% (MKK3(h)): 38% | Inhibition ratio/% (SRMS(h)): 43% | Inhibition ratio/% (MLK3(h)): 102% | Inhibition ratio/% (c-RAF(h)): −13% | Inhibition ratio/% (STK33(h)): 23% | Inhibition ratio/% (MSK2(h)): 9% | Inhibition ratio/% (DCAMKL3(h)): 33% | Inhibition ratio/% (DRAK2(h)): 37% | Inhibition ratio/% (EGFR(T790M)(h)): −10% | Inhibition ratio/% (TSSK3(h)): 0% | Inhibition ratio/% (Txk(h)): −12% | Inhibition ratio/% (EphA7(h)): 20% | Inhibition ratio/% (EphB3(h)): 26% | Inhibition ratio/% (EphB4(h)): 56% | Inhibition ratio/% (VRK2(h)): −18%

— patent US20230365546A1, “5-SUBSTITUTED INDOLE 3-AMIDE DERIVATIVES, PREPARATION METHOD AND USE THEREOF” (ORIGIANT PHARMACEUTICAL CO., LTD, priority 2020, published 2023)
